Data: a compilation of properties of binary mixtures (doi:10.1016/j.jct.2022.106970)

Assay: xn = mol fraction of the nth substance listed
Conditions: 92.3 kPa

CCCC[NH3+].O=C[O-] + CCO
Conditions	speed of sound, 293.15 K [m/s]	speed of sound, 298.15 K [m/s]	speed of sound, 303.15 K [m/s]	speed of sound, 308.15 K [m/s]	speed of sound, 313.15 K [m/s]	viscosity, 293.15 K [mPa·s]	viscosity, 298.15 K [mPa·s]	viscosity, 303.15 K [mPa·s]	viscosity, 308.15 K [mPa·s]	viscosity, 313.15 K [mPa·s]
x1 = 0.0484	1197.4	1180.8	1164.2	1147.9	1131.6	1.91	1.672	1.512	1.37	1.247
x1 = 0.1038	1232	1215.9	1199.9	1184	1168.2	2.85	2.5	2.26	2.04	1.845
x1 = 0.1507	–	1242.7	1227	1211.4	1196	–	3.44	3.07	2.76	2.49
x1 = 0.2004	1283.9	–	1253.1	–	1222.7	5.28	–	4.15	–	3.33
x1 = 0.2564	1310.4	1295.2	–	–	1250.5	7.29	6.4	–	–	4.54
x1 = 0.2938	1326.3	1311.4	1296.6	1281.9	1267.4	9	7.92	6.99	6.2	5.53
x1 = 0.355	1350.5	1336	–	–	1292.9	12.31	10.71	–	–	7.3
x1 = 0.3886	–	1348.5	1334.2	1320	–	–	12.67	11.04	9.68	–
x1 = 0.4521	1384.5	1370.5	–	–	1328.9	19.7	16.96	–	–	11.16
x1 = 0.5005	1399.2	1385.4	–	1358.1	1344.6	24.9	21.3	–	15.84	13.79
x1 = 0.5487	1413.1	1399.5	1386	1372.7	1359.4	30.5	25.8	22	18.89	16.39
x1 = 0.5982	1426.3	1412.9	–	1386.5	1373.5	37.6	31.7	–	23.1	19.7
x1 = 0.6393	1436.7	1423.5	1410.4	–	1384.7	44.9	37.5	31.5	–	23
x1 = 0.6993	1450.9	1437.9	1425.1	–	1399.8	57.4	47.4	39.5	–	28.3
x1 = 0.749	1462.1	1449.3	1436.6	1424.1	1411.7	70.3	57.5	47.7	39.9	33.8
x1 = 0.7972	–	1459.5	1447	1434.7	1422.5	–	69.5	57.1	47.4	39.8
x1 = 0.8487	1482	–	1457.2	1445.1	1433.2	103.8	–	68.4	56.6	47.2
x1 = 0.8993	1491.4	1479.1	1467	1455	1443.2	126.4	101.1	81.9	67.2	55.7
x1 = 0.9444	–	–	1475.2	1463.4	1451.8	–	–	95.8	78.1	64.4
x1 = 1	1508.6	1496.5	1484.7	1473.1	1461.7	182.3	143.6	114.7	92.7	76.1
